Common to all, as to assay: DTP human tumour cell line panel, 48 h
The subject of assay [1] is U251 CNS.
For assay [2], the system named is SF-295 CNS.
Assay [3] relates to UACC-62 melanoma.
Assay [4] deals with IGROV1 ovarian.
In assay [5] the test system is MALME-3M melanoma.
Assay [6] relates to SF-539 CNS.
The subject of assay [7] is LOX IMVI melanoma.
The test system of assay [8] is RXF 393 renal.

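Dose response: 5 concentrations. Exposure: 48 h. Format: 96-well plates. Endpoint: linear interpolation; highest concentration if not reached. At the GI50, growth is halved. TGI: concentration producing complete growth inhibition.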

From PubChem BioAssay (NCI) come the findings set out here.

As usually defined, the TGI is the concentration giving total growth inhibition. A low value points to more potent growth arrest. The GI50 is the concentration at which growth is held to half of that of the control.

On to `Cc1c(C(=O)CC(=O)C(=O)Nc2ccc(Cl)cc2)[n+](=O)c2ccccc2n1[O-]`, for which the TGI in assay [1], in assay [2], in assay [3], in assay [4], in assay [5] and in assay [6] was greater than 100 µM throughout.

With `Cc1ccc(NC(=O)C(=O)CC(=O)c2c(C)n([O-])c3ccccc3[n+]2=O)cc1`, the TGI in assay [7] was 45.4 µM; in assay [1] it was 92.3 µM; in assay [2], greater than 100 µM; in assay [3], 32.6 µM; in assay [4], 78.3 µM; in assay [5], 65.2 µM. Also, the TGI is greater than 100 µM in assay [8] and 62.5 µM in assay [6].

As for `COc1ccc(S(=O)(=O)N/N=C/c2cc(I)cc([N+](=O)[O-])c2O)cc1OC`, the TGI in assay [7] was greater than 100 µM; in assay [1] it was greater than 100 µM; in assay [2], greater than 100 µM; in assay [3] it was 59.7 µM; in assay [4] it was greater than 100 µM; in assay [5], 83.9 µM.

In the case of `COc1ccccc1C1c2cc3c(cc2OC(O)(CO)C1C(=O)O)OCO3` (stereo unspecified) (tested in a mixture with another compound), the TGI in assay [7], in assay [1], in assay [2], in assay [3], in assay [4] and in assay [5] was greater than 100 µM in each case. Also, the TGI in assay [8] and in assay [6] was greater than 100 µM in each case.

For `COc1ccc(CC(=O)NCCc2ccc(OC)c(OC)c2)cc1Br`, the TGI in assay [7], in assay [1], in assay [2], in assay [3], in assay [4] and in assay [5] was greater than 100 µM throughout. The TGI in assay [8] and in assay [6] was greater than 100 µM each time.

As to `CN(C)CCNC(=O)c1cccc2[nH]c(-c3cccnc3)nc12`, the TGI in assay [7] was 48.7 µM; in assay [1], 74.7 µM; in assay [2], greater than 100 µM; in assay [3] it was 34.2 µM; in assay [4], greater than 100 µM; in assay [8] it was 33.8 µM. This compound had a TGI in assay [6] of 45.5 µM.

Regarding `O=[N+]([O-])c1cc(C2SCc3nc4ccccc4n32)ccc1Cl` (stereo unspecified), the total growth inhibition concentration (TGI) is greater than 100 µM in assay [1]; greater than 100 µM in assay [2]; 52.6 µM in assay [3]; greater than 100 µM in assay [4]; greater than 100 µM in assay [5]; 79 µM in assay [8]. The compound further had a TGI in assay [6] of 89.5 µM.

Consider `O=C(O)CCSC(=O)Nc1ccccc1F`, for which the TGI in assay [7], in assay [1], in assay [8] and in assay [6] was greater than 100 µM in each case.

On to `C[N+]1(C)C/C(=C\c2ccccc2)C(=O)/C(=C/c2ccccc2)C1`, for which the TGI in assay [1], in assay [2], in assay [4], in assay [5], in assay [8] and in assay [6] was greater than 100 µM in each case.

For `C/C=C1/CCC2c3[nH]c4ccccc4c3CCN2C1` (stereo unspecified), the TGI in assay [1] is greater than 100 µM; in assay [2], greater than 100 µM; in assay [3] it was greater than 100 µM; in assay [4], greater than 100 µM; in assay [5] it was 67.7 µM; in assay [8], greater than 100 µM. The TGI in assay [6] is greater than 100 µM.

In the case of `O=C1CCCC(=O)N1CCc1c[nH]c2ccccc12`, the TGI in assay [1], in assay [2], in assay [3], in assay [4], in assay [5] and in assay [8] was greater than 100 µM throughout. The TGI in assay [6] is greater than 100 µM.

Regarding `Fc1ccccc1C1SCc2nc3ccccc3n21` (stereo unspecified), the TGI in assay [2], in assay [3], in assay [4], in assay [5], in assay [8] and in assay [6] was greater than 100 µM in each case.

As for `NCCN.NCCN.O=C([O-])CCl.O=C([O-])CCl.[Co+3].[O-][Cl+3]([O-])([O-])[O-]`, the GI50 in assay [7], in assay [1], in assay [2], in assay [3], in assay [4] and in assay [5] was greater than 100 µM throughout. The GI50 in assay [6] was greater than 100 µM. For the same compound, the TGI in assay [7], in assay [1], in assay [2], in assay [3], in assay [4] and in assay [5] was greater than 100 µM in each case. The concentration for total growth inhibition (TGI) in assay [6] is greater than 100 µM.

Take `Cc1cc(NS(=O)(=O)c2ccc(NC(=O)c3ccc(Cl)c4c(Nc5ccc(S(=O)(=O)N=C(N)N)cc5)c5ccccc5nc34)cc2)no1`: the TGI is 98.7 µM in assay [7]; 38.9 µM in assay [1]; greater than 100 µM in assay [2]; greater than 100 µM in assay [3]; greater than 100 µM in assay [5]; 48.6 µM in assay [8]. Also, in assay [6], the TGI was greater than 100 µM.
